The text below walks through data of patent publication US20190375708A1 (VenatoRx Pharmaceuticals, Inc., priority 2018, published 2019).

A value given as a limit tells only on which side of the number the result lay.

The test system of series [1] is HBV replication in HepAD38 cells. Briefly: Anti-HBV replication assay in HepAD38 cells (QPCR of extracellular HBV DNA). The series is classed as cell-based, HBV (genotype D, serotype ayw). The following applies: Hepatitis B virus, 168 h, 7 days incubation, extracellular HBV DNA by QPCR, read-out: Anti-HBV EC50. A digest of the protocol: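 Steps: seed HepAD38 overnight without tetracycline; refresh medium and add 1 log10 serial dilutions ([…]); incubate 7 days at 37 °C; quantify supernatant HBV DNA by QPCR; derive EC50 from a 4-parameter dose-response fit.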

A short description of series [2]: In vitro cytotoxicity assay (MTT cell viability) in HepG2 cells. In kind it is cell-based, human. The following applies: human. The method, boiled down:
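CC50 values reflect loss of HepG2 viability after a 7-day exposure at 37 °C, 5% CO2. After 3-4 h with MTT, solubilized formazan was quantified at 492 nm relative to vehicle wells.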

With `Cc1c(C(=O)Nc2ccc(F)c(F)c2)c(Cl)c(C(=O)C(=O)NC2(C(F)(F)F)CC2)n1C` [Example 376, 4-chloro-N-(3,4-difluorophenyl)-1,2-dimethyl-5-(2-oxo-2-((1-(trifluoromethyl)cyclopropyl)amino)acetyl)-1H-pyrrole-3-carboxamide], the EC50 in series [1] was less than 50 nM. Besides, in series [2], the CC50 at 7 days lay in the range of 5000 to 30000 nM.
For `COc1c(C(=O)Nc2ccc(F)c(F)c2)c(C)n(C)c1C(=O)C(=O)NC1(C(F)(F)F)CC1` [Example 377, N-(3,4-difluorophenyl)-4-methoxy-1,2-dimethyl-5-(2-oxo-2-((1-(trifluoromethyl)cyclopropyl)amino)acetyl)-1H-pyrrole-3-carboxamide], the EC50 in series [1] was less than 50 nM. This molecule yielded a CC50 at 7 days in series [2] greater than 30000 nM.
For `COc1c(C(=O)Nc2ccc(F)c(F)c2)c(C)n(C)c1C(=O)C(=O)NC1(C(F)(F)F)CCC1` [Example 378, N-(3,4-difluorophenyl)-4-methoxy-1,2-dimethyl-5-(2-oxo-2-((1-(trifluoromethyl)cyclobutyl)amino)acetyl)-1H-pyrrole-3-carboxamide], in that order: less than 50 nM and greater than 30000 nM.
The matching figures for `COc1c(C(=O)Nc2ccc(F)c(F)c2)c(C)n(C)c1C(=O)C(=O)NC1(C)CC(F)(F)C1` [Example 379, 5-(2-((3,3-difluoro-1-methylcyclobutyl)amino)-2-oxoacetyl)-N-(3,4-difluorophenyl)-4-methoxy-1,2-dimethyl-1H-pyrrole-3-carboxamide]: 50 to 499 nM and greater than 30000 nM.
The matching figures for `COc1c(C(=O)Nc2ccc(F)c(F)c2)c(C)n(C)c1C(=O)C(=O)NC(C)(C)C` [Example 380]: less than 50 nM and greater than 30000 nM.
For `COc1c(C(=O)Nc2ccc(F)c(F)c2)c(C)n(C)c1C(=O)C(=O)NC(C)(C)CO` [Example 381, N-(3,4-difluorophenyl)-5-(2-((1-hydroxy-2-methylpropan-2-yl)amino)-2-oxoacetyl)-4-methoxy-1,2-dimethyl-1H-pyrrole-3-carboxamide], the EC50 in series [1] lay in the range of 50 to 499 nM. The same molecule came in with a CC50 at 7 days in series [2] greater than 30000 nM.
The matching figures for `COc1c(C(=O)Nc2ccc(F)c(F)c2)c(C)n(C)c1C(=O)C(=O)NCC(C)(C)O` [Example 382, N-(3,4-difluorophenyl)-5-(2-((2-hydroxy-2-methylpropyl)amino)-2-oxoacetyl)-4-methoxy-1,2-dimethyl-1H-pyrrole-3-carboxamide]: greater than 1000 nM and greater than 30000 nM.
For the molecule `COc1c(C(=O)Nc2ccc(F)c(F)c2)c(C)n(C)c1C(=O)C(=O)N[C@H]1CC[C@@H](O)CC1` [Example 383, N-(3,4-difluorophenyl)-5-(2-(((1s,4s)-4-hydroxycyclohexyl)amino)-2-oxoacetyl)-4-methoxy-1,2-dimethyl-1H-pyrrole-3-carboxamide], the EC50 in series [1] was 500 to 1000 nM. The molecule also showed a CC50 at 7 days in series [2] greater than 30000 nM.
For `COc1c(C(=O)Nc2ccc(F)c(F)c2)c(C)n(C)c1C(=O)C(=O)N[C@@H]1CCC[C@@H]1O` [Example 384], in that order: greater than 1000 nM and greater than 30000 nM.
Take `CC[C@@H](CO)NC(=O)C(=O)c1c(OC)c(C(=O)Nc2ccc(F)c(F)c2)c(C)n1C` [Example 385, (S)-N-(3,4-difluorophenyl)-5-(2-((1-hydroxybutan-2-yl)amino)-2-oxoacetyl)-4-methoxy-1,2-dimethyl-1H-pyrrole-3-carboxamide]: in series [1], the EC50 is greater than 1000 nM. In addition, the CC50 at 7 days in series [2] is greater than 30000 nM.
For `Cc1cc(NC(=O)c2c(C)c(C(=O)C(=O)NC(C)(C)C)n(C)c2Cl)ccc1F` [Example 386, 5-(2-(tert-butylamino)-2-oxoacetyl)-2-chloro-N-(4-fluoro-3-methylphenyl)-1,4-dimethyl-1H-pyrrole-3-carboxamide], in that order: greater than 1000 nM and 5000 to 30000 nM.
The matching figures for `Cc1cc(NC(=O)c2c(C)c(C(=O)C(=O)NC3(CO)CC(F)(F)C3)n(C)c2Cl)ccc1F` [Example 387, 2-chloro-5-(2-((3,3-difluoro-1-(hydroxymethyl)cyclobutyl)amino)-2-oxoacetyl)-N-(4-fluoro-3-methylphenyl)-1,4-dimethyl-1H-pyrrole-3-carboxamide]: greater than 1000 nM and 5000 to 30000 nM.
The matching figures for `Cc1cc(NC(=O)c2c(C)c(C(=O)C(=O)NCC(C)(C)O)n(C)c2Cl)ccc1F` [Example 388, 2-chloro-N-(4-fluoro-3-methylphenyl)-5-(2-((2-hydroxy-2-methylpropyl)amino)-2-oxoacetyl)-1,4-dimethyl-1H-pyrrole-3-carboxamide]: greater than 1000 nM and 5000 to 30000 nM.
Regarding `Cc1cc(NC(=O)c2c(C)c(C(=O)C(=O)N[C@@H]3CCC[C@@H]3O)n(C)c2Cl)ccc1F` [Example 390, 2-chloro-N-(4-fluoro-3-methylphenyl)-5-(2-(((1R,2S)-2-hydroxycyclopentyl)amino)-2-oxacetyl)-1,4-dimethyl-1H-pyrrole-3-carboxamide], the EC50 in series [1] lay in the range of 50 to 499 nM. This molecule also had a CC50 at 7 days in series [2] greater than 30000 nM.
The matching figures for `Cc1cc(NC(=O)c2c(C)c(C(=O)C(=O)NC(C)(C)CO)n(C)c2Cl)ccc1F` [Example 391, 2-chloro-N-(44-fluoro-3-methylphenyl)-5-(2-((1-hydroxy-2-methylpropan-2-yl)amino)-2-oxoacetyl)-1 4-dimethyl-1H-pyrrole-3-carboxamide]: greater than 1000 nM and greater than 30000 nM.
The matching figures for `CC(C)(C)NC(=O)C(=O)c1cc(C(=O)Nc2ccc(F)c(C#N)c2)c2n1CCCC2` [Example 392, 3-(2-(tert-butylamino)-2-oxoacetyl)-N-(3-cyano-4-fluorophenyl)-5,6,7,8-tetrahydroindolizine-1-carboxamide]: greater than 1000 nM and 5000 to 30000 nM.
The matching figures for `Cc1cc(NC(=O)c2cc(C(=O)C(=O)NC(C)(C)C)n3c2CCCC3)ccc1F` [Example 393, 3-(2-(tert-butylamino)-2-oxoacetyl)-N-(4-fluoro-3-methylphenyl)-5,6,7,8-tetrahydroindolizine-1-carboxamide]: 50 to 499 nM and greater than 30000 nM.
In the case of `Cc1noc(C(NC(=O)C(=O)c2cc(C(=O)Nc3ccc(F)c(C)c3)c3n2CCCC3)C(C)C)n1` (centres unmarked) [Example 394, N-(4-fluoro-3-methylphenyl)-3-(2-((2-methyl-1-(3-methyl-1,2,4-oxadiazol-5-yl)propyl)amino)-2-oxoacetyl)-5,6,7,8-tetrahydroindolizine-1-carboxamide], the EC50 in series [1] lay in the range of 50 to 499 nM. In series [2], this molecule displayed a CC50 at 7 days greater than 30000 nM.
For the molecule `CC(C)(C)NC(=O)C(=O)c1cc(C(=O)Nc2cc(F)cc(Cl)c2)c2n1CCCC2` [Example 395, 3-(2-(tert-butylamino)-2-oxoacetyl)-N-(3-chloro-5-fluorophenyl)-5,6,7,8-tetrahydroindolizine-1-carboxamide], the EC50 in series [1] is greater than 1000 nM. The molecule also displayed a CC50 at 7 days in series [2] of 500 to 4990 nM.
The matching figures for `CC(C)(C)NC(=O)C(=O)c1cc(C(=O)Nc2cc(F)c(F)c(F)c2)c2n1CCCC2` [Example 396, 3-(2-(tert-butylamino)-2-oxoacetyl)-N-(3,4,5-trifluorophenyl)-5,6,7,8-tetrahydroindolizine-1-carboxamide]: 50 to 499 nM and 5000 to 30000 nM.
The matching figures for `Cc1cc(NC(=O)c2cc(C(=O)C(=O)NC(C)(C)C)n3c2CCCC3)cc(F)c1F` [Example 397, 3-(2-(tert-butylamino)-2-oxoacetyl)-N-(3,4-difluoro-5-metthylphenyl)-5,6,7,8-tetrahydroindolizine-1-carboxamide]: 50 to 499 nM and 5000 to 30000 nM.
Consider `CC(C)(C)NC(=O)C(=O)c1cc(C(=O)Nc2ccc(F)c(F)c2)c2n1CCCC2` [Example 398, 3-(2-(tert-butylamino)-2-oxoacetyl)-N-(3,4-difluorophenyl)-5,6,7,8-tetrahydroindolizine-1-carboxamide], for which the EC50 in series [1] was in the range of 50 to 499 nM. The molecule further had a CC50 at 7 days in series [2] greater than 30000 nM.
The matching figures for `CC(C)(C)NC(=O)C(=O)c1cc(C(=O)Nc2ccc(F)c(Cl)c2)c2n1CCCC2` [Example 399, 3-(2-(tert-butylamino)-2-oxoacetyl)-N-(3-chloro-4-fluorophenyl)-5,6,7,8-tetrahydroindolizine-1-carboxamide]: 50 to 499 nM and greater than 30000 nM.
As to `CC(C)(C)NC(=O)C(=O)c1cc(C(=O)Nc2ccc(F)c(C(F)F)c2)c2n1CCCC2` [Example 400, 3-(2-(tert-butylamino)-2-oxoacetyl)-N-(3-(difluoromethyl)-4-fluorophenyl)-5,6,7,8-tetrahydroindolizine-1-carboxamide], the EC50 in series [1] lay in the range of 50 to 499 nM. The molecule further registered a cytotoxic concentration (CC50) at 7 days in series [2] greater than 30000 nM.
The matching figures for `Cc1cc(NC(=O)c2cc(C(=O)C(=O)N[C@H](C(N)=O)[C@@H](C)O)n3c2CCCC3)ccc1F` [Example 401]: greater than 1000 nM and greater than 30000 nM.
As to `Cc1cc(NC(=O)c2cc(C(=O)C(=O)NC3(C(F)(F)F)CC3)n3c2CCCC3)ccc1F` [Example 402, N-(4-fluoro-3-methylphenyl)-3-(2-oxo-2-((1-(trifluoromethyl)cyclopropyl)amino)acetyl)-5,6,7,8-tetrahydroindolizine-1-carboxamide], the EC50 in series [1] fell in the range of 50 to 499 nM. For the same molecule, in series [2], the CC50 at 7 days is greater than 30000 nM.
The matching figures for `Cc1cc(NC(=O)c2cc(C(=O)C(=O)NC3(C(F)(F)F)CCC3)n3c2CCCC3)ccc1F` [Example 403]: 50 to 499 nM and greater than 30000 nM.
For `Cc1cc(NC(=O)c2cc(C(=O)C(=O)NC3(C)CC(F)(F)C3)n3c2CCCC3)ccc1F` [Example 404, 3-(2-((3,3-difluoro-1-methylcyclobutyl)amino)-2-oxoacetyl)-N-(4-fluoro-3-methylphenyl)-5,6,7,8-tetrahydroindolizine-1-carboxamide], in that order: 50 to 499 nM and greater than 30000 nM.
